These results are taken from ChEMBL document CHEMBL4184240, “Potent human glutaminyl cyclase inhibitors as potential anti-Alzheimer's agents: Structure-activity relationship study of Arg-mimetic region” (Bioorg Med Chem, 2018).

The inhibition is the change of the read-out against control, counted positive when it falls.

Molecules are shown by their SMILES. The source made the active and inactive calls. No cut-off for these calls is given here.

Series [1] concerns the target hERG (KCNH2) (Homo sapiens, UniProt Q12809). The series is described as follows: Inhibition of human ERG at 10 uM relative to control.
Series [2] in a line: Permeability of the compound at pH 7.4 after 30 mins by PAMPA. Format: ADME. As to conditions: pH 7.4, 0.5 h. A general note: In PAMPA a lipid-coated filter parts donor from acceptor wells.
The species entered for series [3] is Mus musculus. As to conditions: ICR, 25 mg/kg.
Description: (§1) Antialzheimer activity in human amyloid beta (3 to 40) induced acute ICR mouse Alzheimer's disease mouse model assessed as inhibition of amyloid beta (N3pE to 40) formation in brain at 25 mg/kg, icv administered via deep cortical/hippocampal tissue measured next day by sandwich ELISA relative to control
Series [4] can be described thus: Cytotoxicity against mouse HT22 cells assessed as cell viability at 10 uM relative to control. As to conditions: read-out: Activity. The class given is cell-based, HT-22.
The species entered for series [5] is Mus musculus. The series is described as follows: animal or person. As to conditions: ICR, central, read-out: INH.
Description: as §1

Chain of hERG (KCNH2) (Q12809 whole entry): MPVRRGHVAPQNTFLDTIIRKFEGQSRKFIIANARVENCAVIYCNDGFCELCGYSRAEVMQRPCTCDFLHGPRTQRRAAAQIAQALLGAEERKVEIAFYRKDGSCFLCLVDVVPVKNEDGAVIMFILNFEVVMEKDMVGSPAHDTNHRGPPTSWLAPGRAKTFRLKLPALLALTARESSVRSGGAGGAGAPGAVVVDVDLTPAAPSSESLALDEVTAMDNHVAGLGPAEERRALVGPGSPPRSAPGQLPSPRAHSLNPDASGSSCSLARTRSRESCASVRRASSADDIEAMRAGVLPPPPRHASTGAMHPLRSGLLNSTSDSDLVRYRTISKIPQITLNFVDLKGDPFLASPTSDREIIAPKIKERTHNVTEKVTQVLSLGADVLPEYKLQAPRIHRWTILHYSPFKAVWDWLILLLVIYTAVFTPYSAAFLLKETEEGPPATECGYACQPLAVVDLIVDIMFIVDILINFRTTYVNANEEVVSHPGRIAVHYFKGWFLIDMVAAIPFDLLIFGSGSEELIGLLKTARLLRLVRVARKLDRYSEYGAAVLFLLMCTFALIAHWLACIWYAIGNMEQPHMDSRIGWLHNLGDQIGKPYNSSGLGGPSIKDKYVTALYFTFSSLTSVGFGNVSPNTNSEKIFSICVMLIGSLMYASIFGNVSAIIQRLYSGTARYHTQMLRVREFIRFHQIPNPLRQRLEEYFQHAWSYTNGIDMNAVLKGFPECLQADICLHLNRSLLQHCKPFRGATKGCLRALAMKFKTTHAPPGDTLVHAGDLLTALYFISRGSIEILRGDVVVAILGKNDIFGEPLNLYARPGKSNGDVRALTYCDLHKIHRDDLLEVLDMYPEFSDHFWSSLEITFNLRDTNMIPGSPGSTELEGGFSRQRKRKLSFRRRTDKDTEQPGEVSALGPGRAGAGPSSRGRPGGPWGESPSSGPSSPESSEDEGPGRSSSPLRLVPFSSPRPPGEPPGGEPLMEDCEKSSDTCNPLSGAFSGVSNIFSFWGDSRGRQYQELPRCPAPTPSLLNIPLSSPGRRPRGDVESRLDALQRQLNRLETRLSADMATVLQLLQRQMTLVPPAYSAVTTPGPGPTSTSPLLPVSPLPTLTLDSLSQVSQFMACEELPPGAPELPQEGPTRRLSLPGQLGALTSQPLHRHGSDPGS

In the case of `COc1cc(NC(=S)NCCCn2cncc2C)ccc1OCCCN1CCN(CCN)CC1`, the inhibition at 10 µM in series [1] is 28.9%. For the same compound, the “log(permeability)” value in series [2] is -10. The inhibition entry in series [3] is “inactive”. Besides, the viability at 10 µM in series [4] stood at 100%.
With `COc1cc(NC(=S)NCCCn2cncc2C)ccc1OCCC(=O)NC1CCNCC1`, in series [5], the inhibition in vivo at 25 mg/kg was 13.5%. The compound also returned an inhibition at 10 µM in series [1] of 5%. The “log(permeability)” value in series [2] is on record as -5.6. Also, in series [4], the viability at 10 µM is 100%.
The matching figures for `COc1cc(NC(=S)NCCCn2cncc2C)ccc1OCCN1CCN(CCN)CC1`: 5.43%, 2.5%, -5.7 and 100%.
In the case of `COc1cc(NC(=S)NCCCn2cncc2C)ccc1OCCN1CCNCC1C` (stereo not given), in series [5], the inhibition in vivo at 25 mg/kg turned out to be 3.01%. The compound also showed an inhibition at 10 µM in series [1] of 33.4%. Also, the “log(permeability)” value in series [2] is reported as -5.8. For the same compound, in series [4], the viability at 10 µM came out at 100%.
The compound `COc1cc(NC(=S)NCCCn2cncc2C)ccc1OCCCCN1CCN(CCN)CC1` had an inhibition at 10 µM in series [1] of 21.1%. Further, the “log(permeability)” value in series [2] was -10. Besides, the inhibition result in series [3] was “inactive”. The viability at 10 µM in series [4] was 100%.
`COc1cc(NC(=S)NCCCn2cncc2C)ccc1OCCCCN1CCN(CCO)CC1`: the “log(permeability)” value in series [2] is given as -8.7. Moreover, the viability at 10 µM in series [4] came to 100%.
`COc1cc(NC(=S)NCCCn2cncc2C)ccc1OCC(=O)N1CCN(CCN)CC1` showed an inhibition at 10 µM in series [1] of 14%. In addition, the “log(permeability)” value in series [2] is on record as -10. Moreover, the inhibition entry in series [3] is “inactive”. The viability at 10 µM in series [4] came to 100%.
Regarding `COc1cc(NC(=S)NCCCn2cncc2C)ccc1OCCN1CCN(CCO)CC1`, in series [1], the inhibition at 10 µM worked out at 9.7%. In series [2], the “log(permeability)” value is -6. Moreover, the inhibition result in series [3] is “inactive”. For the same compound, the viability at 10 µM in series [4] was found to be 100%.
For the compound `COc1cc(NC(=S)NCCCn2cncc2C)ccc1OCCCCc1ccnc(NCCN)c1`, in series [1], the inhibition at 10 µM worked out at 31.5%. Also, in series [2], the “log(permeability)” value was -10. Also, the inhibition entry in series [3] is “inactive”. In addition, the viability at 10 µM in series [4] is 100%.
The like results for `COc1cc(NC(=S)NCCCn2cncc2C)ccc1OCCCCc1ccnc(NCCO)c1` were, in that order, 44.4%, -10, “inactive” and 100%.
With `COc1cc(NC(=S)NCCCn2cncc2C)ccc1OCCN1CC(C)NC(C)C1` (stereo not given), the inhibition at 10 µM in series [1] amounted to 2.5%. Besides, the “log(permeability)” value in series [2] was -5.3. For the same compound, in series [3], the inhibition entry is “inactive”. In addition, the viability at 10 µM in series [4] stood at 100%.
Consider `COc1cc(NC(=S)NCCCn2cncc2C)ccc1OCCC1CCN(CCO)CC1`, for which the inhibition in vivo at 25 mg/kg in series [5] was determined as 0.19%. Also, the inhibition at 10 µM in series [1] was determined as 8.2%. Besides, the “log(permeability)” value in series [2] is -6.7. Besides, the viability at 10 µM in series [4] was found to be 100%.
For `COc1cc(NC(=S)NCCCn2cncc2C)ccc1Oc1ccc(C2=CCNCC2)cc1`, the inhibition in vivo at 25 mg/kg in series [5] was found to be 16.1%. For the same compound, the inhibition at 10 µM in series [1] was 52.8%. The “log(permeability)” value in series [2] was -4.9. The viability at 10 µM in series [4] came out at 100%.
On to `COc1cc(NC(=S)NCCCn2cncc2C)ccc1Oc1ccc(N2CCNCC2)cc1`, for which the inhibition at 10 µM in series [1] came to 39.7%. Further, the “log(permeability)” value in series [2] is listed as -5.6. The inhibition result in series [3] was “inactive”. Also, in series [4], the viability at 10 µM is 100%.
As to `COc1cc(NC(=S)NCCCn2cncc2C)ccc1OCCC(=O)N1CCNCC1`, in series [5], the inhibition in vivo at 25 mg/kg is 18.7%. In series [1], the inhibition at 10 µM came to 1.7%. Also, the “log(permeability)” value in series [2] is -5.7. The viability at 10 µM in series [4] was found to be 100%.
Turning to `COc1cc(NC(=S)NCCCn2cncc2C)ccc1OCCN1CCN(CCOCCN)CC1`, in series [4], the viability at 10 µM was 51.1%.
Consider `COc1cc(NC(=S)NCCCn2cncc2C)ccc1OCCCC(=O)N1CCNCC1`, for which, in series [5], the inhibition in vivo at 25 mg/kg came to 8.07%. For the same compound, in series [1], at 10 µM the inhibition was 1.9%. Also, the “log(permeability)” value in series [2] was -5.7. The viability at 10 µM in series [4] amounted to 100%.
As to `COc1cc(NC(=S)NCCCn2cncc2C)ccc1OCC(=O)NC1CCN(CCN)CC1`, the inhibition at 10 µM in series [1] turned out to be 17.8%. In addition, the “log(permeability)” value in series [2] was -6.4. The inhibition result in series [3] was “inactive”. The viability at 10 µM in series [4] stood at 100%.
Consider `COc1cc(NC(=S)NCCCn2cncc2C)ccc1OCc1ccc(C2CCNCC2)cc1`, for which the inhibition in vivo at 25 mg/kg in series [5] came to 30%. The compound also returned an inhibition at 10 µM in series [1] of 40.1%. The “log(permeability)” value in series [2] is -5.8. In addition, the viability at 10 µM in series [4] is 100%.
In series [1], `COc1cc(NC(=S)NCCCn2cncc2C)ccc1Oc1ccc(C2CCNCC2)cc1` showed an inhibition at 10 µM of 72.8%. Also, the “log(permeability)” value in series [2] is -5.6. Moreover, the inhibition entry in series [3] was “inactive”. For the same compound, the viability at 10 µM in series [4] worked out at 100%.
